Experimental findings from the supplement of paper PMC10307832 are described below.

Common to all, as to test: relative viability (nuclei count vs DMSO), 5 days (fraction); higher = more cells survive
Compound in the assay “Vandetanib + AZD7762”: COc1cc2/c(=N/c3ccc(Br)cc3F)nc[nH]c2cc1OCC1CCN(C)CC1 [Vandetanib] + NC(=O)Nc1cc(-c2cccc(F)c2)sc1C(=O)N[C@H]1CCCNC1 [AZD7762] (partner 0.2 µM)
The method in brief:
(§1)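 Relative viability is defined as nuclei in treated wells over nuclei in vehicle wells. Duplicate plates were run and medians reported. Lung cancer cell lines in 1536-well plates were dosed by pin tool one day after seeding, with one drug or with a fixed anchor-drug dose plus five library-drug doses (not always all listed) in √10 steps, and nuclei were counted after 5 days.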

Compound in the assay “CUDC-101 + Phenformin”: C#Cc1cccc(Nc2ncnc3cc(OC)c(OCCCCCCC(=O)NO)cc23)c1 [CUDC-101] + N=C(N)NC(=N)NCCc1ccccc1 [Phenformin] (partner 250 µM)
The method in brief:
as §1

Compound in the assay “Vandetanib + Pictilisib”: COc1cc2/c(=N/c3ccc(Br)cc3F)nc[nH]c2cc1OCC1CCN(C)CC1 [Vandetanib] + CS(=O)(=O)N1CCN(Cc2cc3nc(-c4cccc5[nH]ncc45)nc(N4CCOCC4)c3s2)CC1 [Pictilisib] (partner 1 µM)
The method in brief: as §1

Compound in assay [1]: C1=CC=C2C(=C1)N=C(S2)C(C#N)C3=NC(=NC=C3)NCCC4=CN=CC=C4 + O=C(CCCCCCC(=O)Nc1ccccc1)NO [Vorinostat] (partner 1 µM)
The method in brief:
as §1

On to NCI-H1666, for which the relative viability worked out at 0.83 with Vandetanib + AZD7762 (first compound 0.02 µM); 0.772 with Vandetanib + AZD7762 (first compound 0.06325 µM); 0.734 with Vandetanib + AZD7762 (first compound 0.2 µM); 0.814 with Vandetanib + AZD7762 (first compound 0.6325 µM); 0.722 in the assay with Vandetanib + AZD7762 (first compound 2 µM); 0.601 with CUDC-101 + Phenformin (first compound 0.01 µM). The relative viability with CUDC-101 + Phenformin (first compound 0.03162 µM) stood at 0.535; in the assay with CUDC-101 + Phenformin (first compound 0.1 µM), 0.574; with CUDC-101 + Phenformin (first compound 0.3162 µM) it was 0.575; in the assay with CUDC-101 + Phenformin (first compound 1 µM), 0.552; with Vandetanib + Pictilisib (first compound 0.02 µM), 0.343; with Vandetanib + Pictilisib (first compound 0.06325 µM), 0.446. Moreover, the relative viability stood at 0.498 in the assay with Vandetanib + Pictilisib (first compound 0.2 µM); 0.451 with Vandetanib + Pictilisib (first compound 0.6325 µM); 0.322 with Vandetanib + Pictilisib (first compound 2 µM); 0.959 in assay [1] (first compound 0.005 µM); 0.922 in assay [1] (first compound 0.01581 µM); 1.07 in assay [1] (first compound 0.05 µM). Moreover, the relative viability in assay [1] (first compound 0.1581 µM) was 1.04; in assay [1] (first compound 0.5 µM), 1.
For NCI-H1734, the relative viability in the assay with Vandetanib + AZD7762 (first compound 0.02 µM) amounted to 0.554; with Vandetanib + AZD7762 (first compound 0.06325 µM), 0.511; with Vandetanib + AZD7762 (first compound 0.2 µM), 0.557; with Vandetanib + AZD7762 (first compound 0.6325 µM) it was 0.517; with Vandetanib + AZD7762 (first compound 2 µM), 0.545; with CUDC-101 + Phenformin (first compound 0.01 µM), 0.362. Moreover, the relative viability in the assay with CUDC-101 + Phenformin (first compound 0.03162 µM) was found to be 0.419; with CUDC-101 + Phenformin (first compound 0.1 µM), 0.425; in the assay with CUDC-101 + Phenformin (first compound 0.3162 µM), 0.448; in the assay with CUDC-101 + Phenformin (first compound 1 µM), 0.29; with Vandetanib + Pictilisib (first compound 0.02 µM), 0.43; with Vandetanib + Pictilisib (first compound 0.06325 µM) it was 0.435. Moreover, the relative viability was 0.479 with Vandetanib + Pictilisib (first compound 0.2 µM); 0.449 in the assay with Vandetanib + Pictilisib (first compound 0.6325 µM); 0.43 in the assay with Vandetanib + Pictilisib (first compound 2 µM); 0.7 in assay [1] (first compound 0.005 µM); 0.785 in assay [1] (first compound 0.01581 µM); 0.758 in assay [1] (first compound 0.05 µM). Also, the relative viability in assay [1] (first compound 0.1581 µM) was 1.06; in assay [1] (first compound 0.5 µM), 0.78.
NCI-H1755: the relative viability was determined as 0.455 with Vandetanib + AZD7762 (first compound 0.02 µM); 0.436 in the assay with Vandetanib + AZD7762 (first compound 0.06325 µM); 0.42 with Vandetanib + AZD7762 (first compound 0.2 µM); 0.437 with Vandetanib + AZD7762 (first compound 0.6325 µM); 0.503 in the assay with Vandetanib + AZD7762 (first compound 2 µM); 0.587 with CUDC-101 + Phenformin (first compound 0.01 µM). Further, the relative viability with CUDC-101 + Phenformin (first compound 0.03162 µM) worked out at 0.629; with CUDC-101 + Phenformin (first compound 0.1 µM) it was 0.319; with CUDC-101 + Phenformin (first compound 0.3162 µM) it was 0.645; with CUDC-101 + Phenformin (first compound 1 µM), 0.534; with Vandetanib + Pictilisib (first compound 0.02 µM), 0.427; with Vandetanib + Pictilisib (first compound 0.06325 µM), 0.381. The relative viability was found to be 0.254 with Vandetanib + Pictilisib (first compound 0.2 µM); 0.426 with Vandetanib + Pictilisib (first compound 0.6325 µM); 0.369 in the assay with Vandetanib + Pictilisib (first compound 2 µM); 0.803 in assay [1] (first compound 0.005 µM); 0.88 in assay [1] (first compound 0.01581 µM); 0.74 in assay [1] (first compound 0.05 µM). Moreover, the relative viability in assay [1] (first compound 0.1581 µM) stood at 0.91; in assay [1] (first compound 0.5 µM), 0.713.
As for NCI-H1793, the relative viability stood at 0.514 with Vandetanib + AZD7762 (first compound 0.02 µM); 0.409 with Vandetanib + AZD7762 (first compound 0.06325 µM); 0.331 with Vandetanib + AZD7762 (first compound 0.2 µM); 0.286 with Vandetanib + AZD7762 (first compound 0.6325 µM); 0.397 with Vandetanib + AZD7762 (first compound 2 µM); 0.372 with CUDC-101 + Phenformin (first compound 0.01 µM). For the same cell line, the relative viability with CUDC-101 + Phenformin (first compound 0.03162 µM) is 0.239; with CUDC-101 + Phenformin (first compound 0.1 µM), 0.34; with CUDC-101 + Phenformin (first compound 0.3162 µM) it was 0.442; in the assay with CUDC-101 + Phenformin (first compound 1 µM), 0.291; in the assay with Vandetanib + Pictilisib (first compound 0.02 µM), 0.338; in the assay with Vandetanib + Pictilisib (first compound 0.06325 µM) it was 0.309. For the same cell line, the relative viability with Vandetanib + Pictilisib (first compound 0.2 µM) stood at 0.27; with Vandetanib + Pictilisib (first compound 0.6325 µM), 0.341; in the assay with Vandetanib + Pictilisib (first compound 2 µM) it was 0.379; in assay [1] (first compound 0.01581 µM), 0.465; in assay [1] (first compound 0.05 µM), 0.713; in assay [1] (first compound 0.1581 µM), 0.829. Also, in assay [1] (first compound 0.5 µM), the relative viability is 0.811.
As to NCI-H1915, the relative viability in the assay with Vandetanib + AZD7762 (first compound 0.02 µM) worked out at 0.696; with Vandetanib + AZD7762 (first compound 0.06325 µM) it was 0.664; in the assay with Vandetanib + AZD7762 (first compound 0.2 µM) it was 0.693; with Vandetanib + AZD7762 (first compound 0.6325 µM) it was 0.612; in the assay with Vandetanib + AZD7762 (first compound 2 µM), 0.719; with CUDC-101 + Phenformin (first compound 0.01 µM), 0.395. Besides, the relative viability in the assay with CUDC-101 + Phenformin (first compound 0.03162 µM) is 0.361; with CUDC-101 + Phenformin (first compound 0.1 µM), 0.364; with CUDC-101 + Phenformin (first compound 0.3162 µM), 0.349; with CUDC-101 + Phenformin (first compound 1 µM), 0.269; in the assay with Vandetanib + Pictilisib (first compound 0.02 µM), 0.858; with Vandetanib + Pictilisib (first compound 0.06325 µM) it was 0.901. Further, the relative viability in the assay with Vandetanib + Pictilisib (first compound 0.2 µM) worked out at 0.946; in the assay with Vandetanib + Pictilisib (first compound 0.6325 µM), 0.944; in the assay with Vandetanib + Pictilisib (first compound 2 µM), 0.888; in assay [1] (first compound 0.01581 µM), 0.515; in assay [1] (first compound 0.05 µM), 0.519; in assay [1] (first compound 0.1581 µM) it was 0.519. Further, the relative viability in assay [1] (first compound 0.5 µM) came to 0.512.
Consider NCI-H1944, for which the relative viability with Vandetanib + AZD7762 (first compound 0.02 µM) amounted to 0.489; with Vandetanib + AZD7762 (first compound 0.06325 µM), 0.611; with Vandetanib + AZD7762 (first compound 0.2 µM), 0.555; with Vandetanib + AZD7762 (first compound 0.6325 µM), 0.462; in the assay with Vandetanib + AZD7762 (first compound 2 µM) it was 0.471; in the assay with CUDC-101 + Phenformin (first compound 0.01 µM), 0.218. In addition, the relative viability with CUDC-101 + Phenformin (first compound 0.03162 µM) turned out to be 0.192; in the assay with CUDC-101 + Phenformin (first compound 0.1 µM), 0.181; in the assay with CUDC-101 + Phenformin (first compound 0.3162 µM) it was 0.193; with CUDC-101 + Phenformin (first compound 1 µM), 0.151; with Vandetanib + Pictilisib (first compound 0.02 µM) it was 0.328; with Vandetanib + Pictilisib (first compound 0.06325 µM), 0.345. The relative viability with Vandetanib + Pictilisib (first compound 0.2 µM) stood at 0.339; in the assay with Vandetanib + Pictilisib (first compound 0.6325 µM) it was 0.345; with Vandetanib + Pictilisib (first compound 2 µM), 0.334; in assay [1] (first compound 0.005 µM) it was 0.638; in assay [1] (first compound 0.01581 µM), 0.521; in assay [1] (first compound 0.05 µM), 0.537. The relative viability in assay [1] (first compound 0.1581 µM) is 0.558; in assay [1] (first compound 0.5 µM) it was 0.52.
